# Test results reported in patent publication EP4603105A1, “PHARMACEUTICAL COMPOSITION CONTAINING CYCLIC COMPOUND HAVING SELECTIVE KRAS INHIBITORY EFFECT AGAINST HRAS AND NRAS” (CHUGAI SEIYAKU KABUSHIKI KAISHA, priority 2022, dated 2024).
# Where two headings read alike, the source gives them in different places.
# Key:
# [1] = biological target: HRAS wild-type protein (Homo sapiens, UniProt P01112); experiment: Binding to HRAS by surface plasmon resonance (SPR), KD and KD ratio to KRAS
# Procedure, shortened: (§1)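 Affinity is measured by surface plasmon resonance at 30°C against captured, GDP-loaded RAS carrying a biotinylated Avi tag. Compounds are titrated by single-cycle kinetics, and KD comes from a 1:1 fit.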
# [2] = biological target: GDP-bound KRAS wild-type protein (Homo sapiens, UniProt P01116); experiment: Binding to KRAS by surface plasmon resonance (SPR), dissociation constant KD
# Sequence of GDP-bound KRAS wild-type protein (P01116 1-188 isoform P01116-2): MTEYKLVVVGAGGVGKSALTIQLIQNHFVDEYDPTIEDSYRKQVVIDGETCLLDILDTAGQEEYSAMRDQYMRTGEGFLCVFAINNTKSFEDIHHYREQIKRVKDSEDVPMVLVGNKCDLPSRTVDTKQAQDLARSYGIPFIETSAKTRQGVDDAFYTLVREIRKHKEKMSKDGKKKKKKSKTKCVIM
# Procedure, shortened: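 Each cycle, GDP-bound biotin-Avi RAS was captured (~100–300 RU), compound concentrations were injected low to high for 75 s each at 100 µL/min, then the chip was regenerated. Buffer: HBS pH 7.4, 10 mM MgCl2, 10 µM GDP, 1 mM DTT, 4% DMSO; 30°C. KD from a 1:1 binding model.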
# [3] = system: human lung cancer strain NCI-H441; experiment: NCI-H441 cell proliferation inhibitory activity (CellTiter-Glo, 4 days); assay type: cell-based; conditions: read-out: NCl-H441 IC50
# Procedure, shortened: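 Readout: […] after the ATP-based reagent. Compound: serial dilutions in dimethyl sulfoxide.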
# [4] = biological target: GDP-bound NRAS wild-type protein (Homo sapiens, UniProt P01111); experiment: Binding to NRAS by surface plasmon resonance (SPR), KD and KD ratio to KRAS
# Sequence of GDP-bound NRAS wild-type protein (P01111 whole entry): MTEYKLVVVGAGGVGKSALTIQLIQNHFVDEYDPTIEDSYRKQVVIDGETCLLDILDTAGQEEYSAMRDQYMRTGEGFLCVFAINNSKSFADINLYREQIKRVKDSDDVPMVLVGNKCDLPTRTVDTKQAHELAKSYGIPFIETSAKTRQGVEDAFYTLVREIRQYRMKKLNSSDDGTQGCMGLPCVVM
# Procedure, shortened: as §1
# [5] = ratio of KD for HRAS wild-type protein to KD for KRAS
# [6] = ratio of KD for GDP-bound NRAS wild-type protein to KD for KRAS
# [7] = ratio of KD with respect to HRAS wild-type protein to KD with respect to KRAS
# [8] = Single Cycle Kinetics, 1:1 binding model
# [9] = 50% proliferation inhibitory concentration, four days
# [10] = ratio of KD with respect to GDP-bound NRAS wild-type protein to KD with respect to KRAS
# Sequence of HRAS wild-type protein (P01112 whole entry): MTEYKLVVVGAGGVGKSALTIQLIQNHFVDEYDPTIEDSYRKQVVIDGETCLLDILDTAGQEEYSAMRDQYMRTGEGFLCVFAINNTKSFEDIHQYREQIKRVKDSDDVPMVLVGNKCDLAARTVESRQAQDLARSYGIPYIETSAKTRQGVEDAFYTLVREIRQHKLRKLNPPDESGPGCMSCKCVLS
Kd ([2]; 1:1 binding model) [nM],"IC50 ([3]; NCI-H441 cells, 4 days) [nM]",Kd ([2]; Single Cycle Kinetics) [nM],"Kd [2, 8] [nM]","IC50 [3, 9] [nM]",SMILES,"HRAS /KRAS [1, 5]","NRAS /KRAS [4, 6]","HRAS /KRAS [1, 7]","NRAS /KRAS [4, 10]"
0.51,39.4,–,–,–,CCOC[C@H]1C(=O)N[C@@H]([C@@H](C)CC)C(=O)N(C)CC(=O)N(C)[C@H]2C/C=C\CCN(C2=O)[C@@H](Cc2ccc(C)cc2)C(=O)N(C)CC(=O)N[C@@H](CCc2ccc(C(F)(F)F)c(Cl)c2)C(=O)N2C[C@@H](C)C[C@H]2C(=O)NC2(CC(C)(C)C2)C(=O)N(C)[C@@H](C2CCCC2)C(=O)N(C)[C@H](C(=O)N(CC)CC)CC(=O)N1C [PP2465],A (a compound having 10 or more and less than 20 is denoted as A),AA (a compound having 20 or more is denoted as AA),–,–
–,–,–,0.49,140,CCO[C@@H]1C[C@H]2C(=O)NC3(CCC3)C(=O)N(C)[C@@H](C3CCCC3)C(=O)N(C)[C@H](C(=O)N(C)C)CC(=O)N(C)[C@@H](CC3CC3)C(=O)N[C@@H]([C@@H](C)CC)C(=O)N(C)CC(=O)N(C)[C@H]3C/C=C\CCN(C3=O)[C@@H](Cc3ccc(F)cc3)C(=O)N(C)CC(=O)N[C@@H](CCc3cc(F)c(Cl)c(F)c3)C(=O)N2C1 [PP1479],–,–,B (a compound having 3 or more and less than 10 is denoted as B),A (a compound having 10 or more and less than 20 is denoted as A)
–,–,–,0.05,16.5,CC[C@H](C)[C@@H]1NC(=O)[C@H](CC)N(C)C(=O)C[C@@H](C(=O)N(C)C)N(C)C(=O)[C@H](C2CCCC2)N(C)C(=O)C2(CCC2)NC(=O)[C@@H]2C[C@@H](C(F)(F)F)CN2C(=O)[C@H](CCc2cc(F)c(C(F)(F)F)c(F)c2)NC(=O)CN(C)C(=O)[C@H](Cc2ccc(C(F)(F)F)cc2)N2CC/C=C\C[C@@H](C2=O)N(C)C(=O)CN(C)C1=O [PP1133],–,–,A (a compound having 10 or more and less than 20 is denoted as A),A (a compound having 10 or more and less than 20 is denoted as A)
0.22,7.2,–,–,–,CCO[C@@H]1C[C@H]2C(=O)NC3(CC(C)(C)C3)C(=O)N(C)[C@@H](C3CCCC3)C(=O)N(C)[C@H](C(=O)N(CC)CC)CC(=O)N(C)[C@@H](COC)C(=O)N[C@@H]([C@@H](C)CC)C(=O)N(C)CC(=O)N(C)[C@H]3C/C=C\CCN(C3=O)[C@@H](Cc3ccc(C)cc3)C(=O)N(C)CC(=O)N[C@@H](CCc3cc(F)c(C(F)(F)F)c(F)c3)C(=O)N2C1 [PP2403],A (a compound having 10 or more and less than 20 is denoted as A),A (a compound having 10 or more and less than 20 is denoted as A),–,–
0.09,4.1,–,–,–,CCOC[C@H]1C(=O)N[C@@H]([C@@H](C)CC)C(=O)N(C)CC(=O)N(C)[C@H]2C/C=C\CCN(C2=O)[C@@H](Cc2ccc(C)cc2)C(=O)N(C)CC(=O)N[C@@H](CCc2cc(F)c(C(F)(F)F)c(F)c2)C(=O)N2C[C@H](OCC)C[C@H]2C(=O)NC2(CC(C)(C)C2)C(=O)N(C)[C@@H](C2CCCC2)C(=O)N(C)[C@H](C(=O)N(C)CC)CC(=O)N1C [PP2404],A (a compound having 10 or more and less than 20 is denoted as A),A (a compound having 10 or more and less than 20 is denoted as A),–,–
0.33,7.6,–,–,–,CCC[C@H]1C(=O)N[C@@H]([C@@H](C)CC)C(=O)N(C2CC2)CC(=O)N(C)[C@H]2C/C=C\CCN(C2=O)[C@@H](Cc2ccc(C)cc2)C(=O)N(C)CC(=O)N[C@@H](CCc2cc(F)c(C(F)(F)F)c(F)c2)C(=O)N2C[C@H](OCC)C[C@H]2C(=O)NC2(CC(C)(C)C2)C(=O)N(C)[C@@H](CC(C)(C)C)C(=O)N(C)[C@H](C(=O)N(C)C)CC(=O)N1C [PP2718],A (a compound having 10 or more and less than 20 is denoted as A),A (a compound having 10 or more and less than 20 is denoted as A),–,–
–,60.2,1.3,–,–,CCCO[C@@H]1C[C@H]2C(=O)NC3(CC(C)(C)C3)C(=O)N(C)[C@@H](C3CCCC3)C(=O)N(C)[C@H](C(=O)N(C)CC)CC(=O)N(C)[C@@H](COCC)C(=O)N[C@@H]([C@@H](C)CC)C(=O)N3CCC[C@H]3C(=O)N(C)[C@H]3C/C=C\CCN(C3=O)[C@@H](Cc3ccc(C)cc3)C(=O)N(C)CC(=O)N[C@@H](CCc3ccc(C(F)(F)F)c(OC)c3)C(=O)N2C1 [PP3467],A (a compound having 10 or more and less than 20 is denoted as A),A (a compound having 10 or more and less than 20 is denoted as A),–,–

# The remaining lines, values behind:
SMILES,Kd ([2]; 1:1 binding model) [nM],"IC50 ([3]; NCI-H441 cells, 4 days) [nM]",Kd ([2]; Single Cycle Kinetics) [nM],"Kd [2, 8] [nM]","IC50 [3, 9] [nM]","HRAS /KRAS [1, 5]","NRAS /KRAS [4, 6]","HRAS /KRAS [1, 7]","NRAS /KRAS [4, 10]"
CCO[C@@H]1C[C@H]2C(=O)OC3(CCC3)C(=O)N(C)[C@@H](C3CCCC3)C(=O)N(C)[C@H](C(=O)N(C)C)CC(=O)N(C)[C@@H](CC(C)C)C(=O)N[C@@H]([C@@H](C)CC)C(=O)N3CCC[C@H]3C(=O)N(C)[C@H]3C/C=C\CCN(C3=O)[C@@H](Cc3ccc(C(F)(F)F)cc3)C(=O)N(C)CC(=O)N[C@@H](CCc3ccc(C(F)(F)F)c(OC)c3)C(=O)N2C1 [PP3362],–,34.3,0.84,–,–,A (a compound having 10 or more and less than 20 is denoted as A),A (a compound having 10 or more and less than 20 is denoted as A),–,–
CCO[C@@H]1C[C@H]2C(=O)NC3(CC(C)(C)C3)C(=O)N(C)[C@@H](C(CC)CC)C(=O)N(C)[C@H](C(=O)N(C)C)CC(=O)N(C)[C@@H](COC)C(=O)N[C@@H]([C@@H](C)CC)C(=O)N(C3CC3)CC(=O)N(C)[C@H]3C/C=C\CCN(C3=O)[C@@H](CC3CCC(F)(F)CC3)C(=O)N(C)CC(=O)N[C@@H](CCc3cc(F)c(C(F)(F)F)c(F)c3)C(=O)N2C1 [PP2568],1.2,23.4,–,–,–,B (a compound having 3 or more and less than 10 is denoted as B),A (a compound having 10 or more and less than 20 is denoted as A),–,–
C=CC[C@H]1C(=O)N(C)[C@H](C(=O)N(C)C)CC(=O)N(C)[C@@H](CCC)C(=O)N[C@@H]([C@@H](C)CC)C(=O)N(C)CC(=O)N(C)[C@H]2C/C=C\CCN(C2=O)[C@@H](Cc2ccc(C(F)(F)F)cc2)C(=O)N(C)CC(=O)N[C@@H](CCc2cc(F)c(C(F)(F)F)c(F)c2)C(=O)N2C[C@H](OCC)C[C@H]2C(=O)N(C)C2(CCC2)C(=O)N1C [PP3336],–,66.1,1.5,–,–,A (a compound having 10 or more and less than 20 is denoted as A),A (a compound having 10 or more and less than 20 is denoted as A),–,–
CCC[C@H]1C(=O)N[C@@H]([C@@H](C)CC)C(=O)N(C)CC(=O)N(C)[C@H]2C/C=C\CCN(C2=O)[C@@H](Cc2ccc(C)cc2)C(=O)N(C)CC(=O)N[C@@H](CCc2cc(F)c(C(F)(F)F)c(F)c2)C(=O)N2CC3(CC3)C[C@H]2C(=O)N(C)C2(CCC2)C(=O)N(C)[C@@H](C(CC)CC)C(=O)N(C)[C@H](C(=O)N(C)C)CC(=O)N1C [PP3329],–,8.7,0.23,–,–,B (a compound having 3 or more and less than 10 is denoted as B),A (a compound having 10 or more and less than 20 is denoted as A),–,–
CCC[C@H]1C(=O)N[C@@H]([C@@H](C)CC)C(=O)N(C)CC(=O)N(C)[C@H]2C/C=C\CCN(C2=O)[C@@H](Cc2ccc(C(F)(F)F)cc2)C(=O)N(C)CC(=O)N[C@@H](CCc2ccc(Cl)c(Cl)c2)C(=O)N2C[C@H](OCC)C[C@H]2C(=O)NC2(CC(C)(C)C2)C(=O)N(C)[C@@H](CC2CCC2)C(=O)N(C)[C@H](C(=O)N(C)C)CC(=O)N1C [PP2766],0.52,26,–,–,–,A (a compound having 10 or more and less than 20 is denoted as A),A (a compound having 10 or more and less than 20 is denoted as A),–,–
CCC(CC)[C@H]1C(=O)N(C)[C@H](C(=O)N2CCCCC2)CC(=O)N(C)[C@@H](COC)C(=O)N[C@@H]([C@@H](C)CC)C(=O)N(C)CC(=O)N(C)[C@H]2C/C=C\CCN(C2=O)[C@@H](Cc2ccc(C(F)(F)F)cc2)C(=O)N(C)CC(=O)N[C@@H](CCc2ccc(Cl)c(Cl)c2)C(=O)N2C[C@H](OC(C)C)C[C@H]2C(=O)NC2(CC(C)(C)C2)C(=O)N1C [PP2612],2.4,199,–,–,–,A (a compound having 10 or more and less than 20 is denoted as A),AA (a compound having 20 or more is denoted as AA),–,–
CCC[C@H]1C(=O)N[C@@H]([C@@H](C)CC)C(=O)N(C)CC(=O)N(C)[C@H]2C/C=C\CCN(C2=O)[C@@H](Cc2ccc(C(F)(F)F)cc2)C(=O)N(C)CC(=O)N[C@@H](CCc2cc(F)c(C(F)(F)F)c(F)c2)C(=O)N2CC3(CC3)C[C@H]2C(=O)N(C)C2(CCC2)C(=O)N(C)[C@@H]([C@@H](C)CC)C(=O)N(C)[C@H](C(=O)N(C)C)CC(=O)N1C [PP3358],–,3.1,0.11,–,–,A (a compound having 10 or more and less than 20 is denoted as A),A (a compound having 10 or more and less than 20 is denoted as A),–,–
CC[C@H](C)[C@@H]1NC(=O)[C@H](COC)N(C)C(=O)C[C@@H](C(=O)N(C)C)N(C)C(=O)[C@H](C2CCCC2)N(C)C(=O)C2(CC(C)(C)C2)NC(=O)[C@@H]2C[C@@H](OC(C)C)CN2C(=O)[C@H](CCc2cc(F)c(C(F)(F)F)c(F)c2)NC(=O)CN(C)C(=O)[C@H](CC2CCCCC2)N2CC/C=C\C[C@@H](C2=O)N(C)C(=O)CN(C2CC2)C1=O [PP2511],0.95,107,–,–,–,A (a compound having 10 or more and less than 20 is denoted as A),A (a compound having 10 or more and less than 20 is denoted as A),–,–
